Experimental findings from PubChem BioAssay (NCI) are described below.

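Compound exposure: 48 hours, 5 concentrations, 96-well plates. GI50 = concentration required for 50% inhibition of growth. Definition used: TGI = concentration required for complete inhibition of growth.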

Among the test systems are 786-0 renal; MDA-MB-435; SNB-75 CNS; T-47D breast; SN12C renal; HT29 colon; HL-60(TB) leukemia; NCI-H522 lung; RPMI-8226 leukemia; SW-620 colon.
Test in all cases: DTP human tumour cell line panel, 48 h

`COC(=O)[C@H]1C(=O)[C@@]2(C)[C@H]([C@H](OC(=O)c3ccccc3)[C@]3(O)C[C@H](OC(=O)[C@H](O)[C@@H](NC(=O)c4ccc(F)cc4)c4ccccc4)C(C)=C1C3(C)C)[C@]1(OC(C)=O)CO[C@@H]1C[C@@H]2O`: the GI50 in the experiment with 786-0 renal was 0.0805 µM; in the experiment with MDA-MB-435, 0.0025 µM; in the experiment on SNB-75 CNS it was 0.00273 µM; in the experiment on T-47D breast it was 0.0106 µM; with SN12C renal it was 0.0104 µM; in the experiment on HT29 colon, 0.00378 µM. The GI50 is 0.00614 µM in the experiment with HL-60(TB) leukemia, 0.0135 µM in the experiment with NCI-H522 lung, 0.00484 µM in the experiment on RPMI-8226 leukemia and 0.00821 µM with SW-620 colon. In addition, the TGI was 0.00604 µM with MDA-MB-435; 0.0443 µM in the experiment with SNB-75 CNS; > 25 µM in the experiment with T-47D breast; > 25 µM with SN12C renal; > 25 µM in the experiment with HT29 colon; 0.0184 µM in the experiment with HL-60(TB) leukemia. Besides, the TGI with NCI-H522 lung was > 7.4 µM; in the experiment on RPMI-8226 leukemia, 0.271 µM; with SW-620 colon it was > 25 µM.

As for `Cc1nc2ccccn2c1NC(=O)NNC(=S)Nc1ccc(Br)cc1`, the GI50 in the experiment on 786-0 renal was 41.7 µM; in the experiment with MDA-MB-435 it was 29.3 µM; in the experiment with SNB-75 CNS it was 26.1 µM; with T-47D breast, 48.2 µM; in the experiment on SN12C renal it was 35.9 µM; in the experiment on HT29 colon, 24.9 µM. Further, the GI50 with HL-60(TB) leukemia is 24.4 µM; in the experiment with NCI-H522 lung, 30.1 µM; in the experiment with RPMI-8226 leukemia it was 41.6 µM; with SW-620 colon, 39.8 µM. Moreover, the TGI in the experiment on 786-0 renal was > 100 µM; in the experiment with MDA-MB-435 it was 70.6 µM; in the experiment on SNB-75 CNS, 67.5 µM; with T-47D breast, > 100 µM; in the experiment on SN12C renal it was > 100 µM; in the experiment with HT29 colon, 69.8 µM. Besides, the TGI in the experiment with HL-60(TB) leukemia was > 100 µM; in the experiment on NCI-H522 lung it was 79.1 µM; in the experiment with RPMI-8226 leukemia it was > 100 µM; in the experiment with SW-620 colon, > 100 µM.

In the case of `CC(C)CCSC1=CC(=O)c2ccccc2C1=O`, the GI50 in the experiment on 786-0 renal is 19.8 µM; in the experiment on MDA-MB-435 it was 3.88 µM; in the experiment with SNB-75 CNS it was 0.811 µM; in the experiment with T-47D breast, 1.19 µM; in the experiment with SN12C renal, 12.9 µM; with HT29 colon it was 23.7 µM. Moreover, the GI50 was 0.325 µM in the experiment on HL-60(TB) leukemia, 1.6 µM in the experiment on NCI-H522 lung, 0.0469 µM in the experiment with RPMI-8226 leukemia and 2.59 µM in the experiment with SW-620 colon. The total growth inhibition concentration (TGI) is 34.4 µM in the experiment on 786-0 renal; 13.8 µM with MDA-MB-435; > 46.9 µM in the experiment with SNB-75 CNS; 3.51 µM in the experiment with T-47D breast; 25.8 µM in the experiment with SN12C renal; 53.7 µM with HT29 colon. For the same compound, the TGI with HL-60(TB) leukemia amounted to 0.943 µM; in the experiment on NCI-H522 lung, 6.38 µM; with RPMI-8226 leukemia it was 0.304 µM; with SW-620 colon, 8.91 µM.

As for `O=C1/C=C/[C@@H](O)[C@@H]2C[C@@H](O)C[C@H]2/C=C/CCC[C@H](CCc2ccc(C(F)(F)F)cc2)O1`, the concentration for 50% growth inhibition (GI50) was 0.0826 µM in the experiment on 786-0 renal; 0.243 µM in the experiment with MDA-MB-435; 0.0544 µM in the experiment with SNB-75 CNS; 0.318 µM in the experiment on T-47D breast; 0.329 µM in the experiment on SN12C renal; 0.127 µM in the experiment on HT29 colon. Further, the GI50 was 0.346 µM with HL-60(TB) leukemia, 0.282 µM in the experiment on NCI-H522 lung, 0.282 µM with RPMI-8226 leukemia and 0.297 µM in the experiment with SW-620 colon. The TGI in the experiment on 786-0 renal was 0.378 µM; in the experiment on MDA-MB-435 it was > 72.1 µM; with SNB-75 CNS, 32.5 µM; in the experiment on T-47D breast, 59.8 µM; in the experiment on SN12C renal, > 36.5 µM; with HT29 colon it was 2.1 µM. The TGI with HL-60(TB) leukemia was determined as 2.74 µM; with NCI-H522 lung it was 0.775 µM; in the experiment on RPMI-8226 leukemia, 0.806 µM; in the experiment with SW-620 colon, 1.27 µM.

Take `NC(=O)C1c2ccccc2C=Cc2ccccc21`: the GI50 was > 100 µM with 786-0 renal; 73.3 µM with MDA-MB-435; > 100 µM with SNB-75 CNS; > 100 µM in the experiment on T-47D breast; > 100 µM in the experiment with SN12C renal; > 100 µM in the experiment on HT29 colon. Besides, the GI50 with HL-60(TB) leukemia, in the experiment with NCI-H522 lung, with RPMI-8226 leukemia and with SW-620 colon was > 100 µM in each case. Also, the TGI in the experiment on 786-0 renal, in the experiment on MDA-MB-435, in the experiment with SNB-75 CNS, with T-47D breast, with SN12C renal and in the experiment on HT29 colon was > 100 µM each time. Besides, the TGI with HL-60(TB) leukemia, in the experiment with NCI-H522 lung, in the experiment with RPMI-8226 leukemia and in the experiment with SW-620 colon was > 100 µM in each case.

In the case of `O=C1/C(=C\c2ccc(F)cc2)CN(C(=O)c2ccc([N+](=O)[O-])cc2)C/C1=C\c1ccc(F)cc1`, the GI50 with 786-0 renal is 1.89 µM; in the experiment with MDA-MB-435 it was 1.83 µM; with SNB-75 CNS it was 7.66 µM; in the experiment with T-47D breast it was 6.61 µM; in the experiment with SN12C renal it was 2.19 µM; with HT29 colon, 0.517 µM. The GI50 in the experiment with HL-60(TB) leukemia was 5.07 µM; in the experiment with NCI-H522 lung, 4.3 µM; in the experiment with RPMI-8226 leukemia, 0.302 µM; in the experiment on SW-620 colon, 0.885 µM. The TGI with 786-0 renal was 4.32 µM; with MDA-MB-435 it was > 27.7 µM; in the experiment on SNB-75 CNS, > 93 µM; in the experiment with T-47D breast, > 100 µM; in the experiment on SN12C renal it was 6.55 µM; with HT29 colon it was 3.52 µM. The TGI is > 50.2 µM in the experiment on HL-60(TB) leukemia, 30.7 µM with NCI-H522 lung, 1.62 µM in the experiment with RPMI-8226 leukemia and 5.35 µM in the experiment on SW-620 colon.

`NCCCCCCCCn1c2c(c3ccccc3c1=O)C(=O)c1ccccc1-2`: the GI50 with 786-0 renal was 21 µM; in the experiment on MDA-MB-435, 5.63 µM; with SNB-75 CNS, 7.65 µM; in the experiment on T-47D breast it was 4.97 µM; in the experiment with SN12C renal it was 3.45 µM; with HT29 colon, 1.86 µM. Also, the GI50 with HL-60(TB) leukemia is 2.34 µM; with NCI-H522 lung it was 2.46 µM; with RPMI-8226 leukemia, 4.02 µM; with SW-620 colon it was 1.8 µM. Besides, the TGI in the experiment on 786-0 renal was determined as 56.4 µM; in the experiment on MDA-MB-435, 21.5 µM; with SNB-75 CNS, 26.8 µM; in the experiment on T-47D breast, 36.6 µM; in the experiment with SN12C renal, 11.3 µM; with HT29 colon, 4.02 µM. In addition, the TGI in the experiment with HL-60(TB) leukemia amounted to 6.23 µM; with NCI-H522 lung it was 6.37 µM; in the experiment on RPMI-8226 leukemia it was 23.7 µM; in the experiment on SW-620 colon it was 3.34 µM.
